Source: US20160024071A1, “INHIBITORS OF LRRK2 KINASE ACTIVITY” (ELAN PHARMACEUTICALS, LLC., priority 2013, published 2016)

Biological target: T1, recombinant GST-LRRK2 (wild-type) (Homo sapiens, UniProt Q5S007)
T1 construct: GST (N); purchased Invitrogen
Experiment: LRRK2 TR-FRET peptide assay (wild-type)
Assay type: biochemical
Conditions: 100 μM ATP, 100 nM biotin-LRRKtide, 10 nM kinase, 60 min room temperature
Protocol: Compounds as described herein (compounds of Formula I, e.g., compounds of the above Examples) are tested for their in vitro kinase activities using various LRRK2 (including LRRK2 G2019S mutant) assays. For example, assays were performed in a total volume of 20 μL using the same kinase reaction buffer (50 mM HEPES pH 7.5, 10 mM MgCl2, 1 mM EGTA, 2 mM DTT and 0.01% Tween-20) for wild-type or G2019S mutant LRRK2. Serially diluted compounds (1% DMSO as co-solvent) were pre-incubated with recombinant GST-LRRK2 (wild-type, or G2019S mutant, Invitrogen) for 15 minutes at room temperature in 384-well Corning black plates. Mixtures of ATP and biotin-LRRKtide substrate (biotin-RLGRDKYKTLRQIRQ) were added to the wells at a final concentration of 100 μM ATP and 100 nM substrate, with final kinase concentration of 10 nM. The kinase reactions were carried out at room temperature for 60 minutes, then the reaction was stopped with the addition of 10 μL/well of stop/detection buffer (25 mM HEPES pH 7.5, 66 mM EDTA, 0.8 M KF and 0.1% BSA) that contains streptavidin-XL665 (12.5 nM) and europium-conjugated phospho-specific antibody (2 nM). The plates were read 1 hour later and the time-resolved fluorescence (665 nm to 615 nm ratio) measured using an Envision reader. The inhibition of each well was calculated using the control and background readings for that plate. IC50 values were determined from dose-response curves using eight concentrations from the serial dilution of the test compounds.

T1 sequence (Q5S007 whole entry): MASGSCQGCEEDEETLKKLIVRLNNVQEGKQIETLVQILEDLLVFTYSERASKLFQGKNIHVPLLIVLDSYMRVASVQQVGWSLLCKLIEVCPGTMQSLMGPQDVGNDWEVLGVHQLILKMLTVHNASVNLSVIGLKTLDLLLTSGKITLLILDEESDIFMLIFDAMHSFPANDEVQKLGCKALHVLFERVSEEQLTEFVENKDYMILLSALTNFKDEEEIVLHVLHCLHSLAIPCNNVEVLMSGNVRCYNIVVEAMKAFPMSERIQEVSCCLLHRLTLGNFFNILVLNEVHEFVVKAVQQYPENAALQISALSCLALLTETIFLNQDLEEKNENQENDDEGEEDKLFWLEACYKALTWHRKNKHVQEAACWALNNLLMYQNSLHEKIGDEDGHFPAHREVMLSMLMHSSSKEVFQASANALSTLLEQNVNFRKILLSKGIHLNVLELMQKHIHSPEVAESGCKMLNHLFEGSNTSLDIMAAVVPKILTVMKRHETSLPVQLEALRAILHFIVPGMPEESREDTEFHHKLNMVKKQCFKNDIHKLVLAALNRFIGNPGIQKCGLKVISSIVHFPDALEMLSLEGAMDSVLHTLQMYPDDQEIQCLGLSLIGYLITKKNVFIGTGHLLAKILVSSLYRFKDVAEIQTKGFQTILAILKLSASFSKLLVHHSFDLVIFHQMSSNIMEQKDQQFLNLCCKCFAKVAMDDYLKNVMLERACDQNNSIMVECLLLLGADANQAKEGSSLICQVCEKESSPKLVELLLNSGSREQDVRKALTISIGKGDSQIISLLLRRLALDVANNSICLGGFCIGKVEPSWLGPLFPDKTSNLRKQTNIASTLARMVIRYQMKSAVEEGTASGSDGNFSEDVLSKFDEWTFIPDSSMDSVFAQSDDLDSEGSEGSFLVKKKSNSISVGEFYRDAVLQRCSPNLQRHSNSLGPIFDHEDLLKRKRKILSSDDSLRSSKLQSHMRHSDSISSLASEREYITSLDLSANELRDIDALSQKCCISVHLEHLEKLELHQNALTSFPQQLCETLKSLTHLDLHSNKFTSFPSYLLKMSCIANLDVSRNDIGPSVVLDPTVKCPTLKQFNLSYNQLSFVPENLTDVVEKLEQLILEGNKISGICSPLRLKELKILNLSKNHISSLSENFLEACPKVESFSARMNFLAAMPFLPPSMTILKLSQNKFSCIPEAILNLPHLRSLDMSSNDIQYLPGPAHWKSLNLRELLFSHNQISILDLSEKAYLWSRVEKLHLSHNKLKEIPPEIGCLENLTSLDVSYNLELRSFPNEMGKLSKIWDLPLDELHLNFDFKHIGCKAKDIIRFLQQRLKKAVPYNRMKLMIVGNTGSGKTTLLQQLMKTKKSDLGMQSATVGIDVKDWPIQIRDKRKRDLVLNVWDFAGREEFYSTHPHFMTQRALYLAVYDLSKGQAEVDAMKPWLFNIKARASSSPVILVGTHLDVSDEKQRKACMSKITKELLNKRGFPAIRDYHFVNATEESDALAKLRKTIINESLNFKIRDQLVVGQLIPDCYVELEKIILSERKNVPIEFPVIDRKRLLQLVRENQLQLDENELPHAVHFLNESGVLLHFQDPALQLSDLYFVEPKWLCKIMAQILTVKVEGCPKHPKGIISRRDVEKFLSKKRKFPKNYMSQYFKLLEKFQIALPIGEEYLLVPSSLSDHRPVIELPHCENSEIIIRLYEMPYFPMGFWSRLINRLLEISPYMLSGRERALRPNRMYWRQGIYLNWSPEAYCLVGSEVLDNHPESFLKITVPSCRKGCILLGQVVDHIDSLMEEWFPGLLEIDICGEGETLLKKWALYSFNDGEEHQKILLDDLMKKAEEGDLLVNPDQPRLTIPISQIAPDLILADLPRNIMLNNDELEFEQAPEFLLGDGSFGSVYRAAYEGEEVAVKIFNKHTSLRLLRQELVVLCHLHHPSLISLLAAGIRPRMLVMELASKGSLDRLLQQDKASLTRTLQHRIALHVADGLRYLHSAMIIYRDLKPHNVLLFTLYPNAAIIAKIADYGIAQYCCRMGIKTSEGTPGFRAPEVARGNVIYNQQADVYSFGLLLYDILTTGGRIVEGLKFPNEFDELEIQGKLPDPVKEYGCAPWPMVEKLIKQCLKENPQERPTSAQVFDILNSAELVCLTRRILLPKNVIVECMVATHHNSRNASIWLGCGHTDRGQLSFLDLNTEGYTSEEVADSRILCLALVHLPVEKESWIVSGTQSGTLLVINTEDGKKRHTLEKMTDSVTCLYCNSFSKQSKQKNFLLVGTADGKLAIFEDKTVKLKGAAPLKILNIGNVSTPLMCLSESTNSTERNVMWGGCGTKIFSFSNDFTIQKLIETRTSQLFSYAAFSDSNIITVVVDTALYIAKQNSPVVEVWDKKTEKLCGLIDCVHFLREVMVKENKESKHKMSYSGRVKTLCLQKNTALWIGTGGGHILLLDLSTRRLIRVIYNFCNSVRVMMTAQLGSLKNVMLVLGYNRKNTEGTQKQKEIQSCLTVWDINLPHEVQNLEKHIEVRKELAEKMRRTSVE

COc1ccccc1N1C(=O)CSC1=NNC(=O)c1ccc(Cl)s1 [Compound 1-9, 5-chloro-N′-(3-(2-methoxyphenyl)-4-oxothiazolidin-2-ylidene)thiophene-2-carbohydrazide]
IC50: 1170 nM

O=C(NN=C1SCC(=O)N1c1cccc(C(F)(F)F)c1)c1ccc(Cl)s1 [Compound 1-16, 5-chloro-N′-(4-oxo-3-(3-(trifluoromethyl)phenyl)thiazolidin-2-ylidene)thiophene-2-carbohydrazide]
IC50: 111 nM

CC1(C)SC(=NNC(=O)c2ccc(Cl)s2)N(c2ccccc2)C1=O [Compound 1-14, 5-chloro-N′-(5,5-dimethyl-4-oxo-3-phenylthiazolidin-2-ylidene)thiophene-2-carbohydrazide]
IC50: 330 nM

O=C(NN=C1SCCN1c1ccccc1)c1ccc(Cl)s1 [Compound 2-19, 5-chloro-N′-(3-phenylthiazolidin-2-ylidene)thiophene-2-carbohydrazide]
IC50: 51 nM

O=C(NN=C1SCC(=O)N1c1ccc(F)cc1)c1ccc(Cl)s1 [Compound 1-11, 5-chloro-N′-(3-(4-fluorophenyl)-4-oxothiazolidin-2-ylidene)thiophene-2-carbohydrazide]
IC50: 0.9 nM

O=C(NN=C1SCC(=O)N1Cc1ccccc1)c1ccc(Cl)s1 [Compound 1-15, N′-(3-benzyl-4-oxothiazolidin-2-ylidene)-5-chlorothiophene-2-carbohydrazide]
IC50: 13 nM

CC(C)C1SC(=NNC(=O)c2ccc(Cl)s2)N(c2ccccc2)C1=O (stereo not drawn) [Compound 1-13, 5-chloro-N′-(5-isopropyl-4-oxo-3-phenylthiazolidin-2-ylidene)thiophene-2-carbohydrazide]
IC50: 210 nM

CC1SC(=NNC(=O)c2ccc(Cl)s2)N(c2ccccc2)C1=O (stereo not drawn) [Compound 1-7, 5-chloro-N′-(5-methyl-4-oxo-3-phenylthiazolidin-2-ylidene)thiophene-2-carbohydrazide]
IC50: 11 nM

O=C(NN=C1SCC(=O)N1c1cccc(F)c1)c1ccc(Cl)s1 [Compound 1-8, 5-chloro-N′-(3-(3-fluorophenyl)-4-oxothiazolidin-2-ylidene)thiophene-2-carbohydrazide]
IC50: 1.1 nM

O=C(NN=C1SCC(=O)N1c1ccccc1)c1ccc(Cl)s1 [Compound 1-6, 5-chloro-N′-(4-oxo-3-phenylthiazolidin-2-ylidene)thiophene-2-carbohydrazide]
IC50: 0.9 nM

O=C(NN=C1SCC(=O)N1c1ccccc1F)c1ccc(Cl)s1 [Compound 1-10, 5-chloro-N′-(3-(2-fluorophenyl)-4-oxothiazolidin-2-ylidene)thiophene-2-carbohydrazide]
IC50: 0.5 nM

O=C(NN=C1SCC(=O)N1c1ccc(F)cc1F)c1ccc(Cl)s1 [Compound 1-12, 5-chloro-N′-(3-(2,4-difluorophenyl)-4-oxothiazolidin-2-ylidene)thiophene-2-carbohydrazide]
IC50: 0.5 nM
